Data as given in US20090087916A1, “Assay method for identifying drug candidate” (AnGesMG, Inc., priority 2004, published 2009).

Assays:
Aβ = details: in vitro; Ono, Biochim Biophys Acta 2004; cited from earlier work
Aβ (1-42) fibril = Aβ (1-42) fibril (Homo sapiens, UniProt P05067); assay: in vitro sink-like Aβ assay: Aβ dissolved from fibril in presence of compound, Aβ ELISA of supernatant; type: biochemical; details: Aβ (1-42) fibril pellets, PBS containing compound, 37° C. for one day, supernatant by Aβ ELISA; control (PBS without compound) = 1
Method: Sandwich ELISA for Aβ (1-40) and Aβ (1-42) was performed using an Aβ (1-40) ELISA kit and Aβ (1-42) ELISA kit (Biosoure, IBL, Signet Laboratories and the like). […] The peptide was incubated for several days at 37° C. until fibrillization was completed. After centrifugation at 22° C. (15,000×g, 10 min), the supernatant was removed. The obtained pellets were gradually and carefully washed 3 times with PBS. Fresh PBS (20 μl) was carefully and gradually added to the pellets. The sample was incubated at 37° C. for one day. After centrifugation (15,000×g, 10 min) at 22° C., the supernatant was removed. […] The sample was incubated at 37° C. for one day.

tau = details: Taniguchi et al., J Biol Chem 2005; cited from earlier work
[1] = tested on: protease-resistant protein (PrP-res); details: cited from earlier work

Chain of Aβ (1-42) fibril (P05067 672-713): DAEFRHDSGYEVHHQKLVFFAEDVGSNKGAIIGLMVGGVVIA

| Compound | inhibitory action on the formation or elongation of Aβ (Aβ) | average (ratio of Aβ dissolved from fibril when the control is 1) (Aβ (1-42) fibril) | inhibition of tau filament formation (tau) | inhibition of formation of protease-resistant protein (PrP-res) [1] |
| --- | --- | --- | --- | --- |
| O=c1c(O)c(-c2cc(O)c(O)c(O)c2)oc2cc(O)cc(O)c12 [myricetin] | in vitro inhibitory action on the formation or elongation of Aβ | 1.3196 |  |  |
| CNc1ccc2nc3ccc(=[N+](C)C)cc-3sc2c1.[Cl-] [azure B] |  | 2.1701 | inhibit tau filament formation |  |
| COc1cc(/C=C/C(=O)CC(=O)/C=C/c2ccc(O)c(OC)c2)ccc1O [curcumin] |  | 2.4691 |  |  |
| CCN(CCO)c1ccc(/N=N/c2sc3cc(OC)ccc3[n+]2C)cc1 [basic blue 41] |  | 2.299 |  |  |
| ferric dehydroporphyrin IX |  | 1.4124 | inhibits tau filament formation | inhibit in vitro the formation of a protease-resistant protein (PrP-res) |
| O=C(OC[C@H]1O[C@@H](OC(=O)c2cc(O)c(O)c(OC(=O)c3cc(O)c(O)c(O)c3)c2)[C@H](OC(=O)c2cc(O)c(O)c(OC(=O)c3cc(O)c(O)c(O)c3)c2)[C@@H](OC(=O)c2cc(O)c(O)c(OC(=O)c3cc(O)c(O)c(O)c3)c2)[C@@H]1OC(=O)c1cc(O)c(O)c(OC(=O)c2cc(O)c(O)c(O)c2)c1)c1cc(O)c(O)c(OC(=O)c2cc(O)c(O)c(O)c2)c1 [tannic acid] | in vitro inhibitory action on the formation or elongation of Aβ | 1.3969 |  |  |
